How the values were obtained:
norepinephrine uptake = biological target: T1, norepinephrine uptake (Rattus norvegicus, UniProt Q63380); conditions: homogenate of rat hypothalamus; versus racemic milnacipran hydrochloride; cited from earlier work
T1 construct: from tissue; host or cells: rat hypothalamus homogenate

[1] = system: patients with Major Depressive Disorders (MDD); assay: multi-center, randomised, double-blinded, placebo-controlled 10 weeks study of F2695 in Major Depressive Disorders; format: in vivo, human
Text: This was a multi-center, randomised, double-blinded, placebo-controlled 10 weeks study, assessing the efficacy and safety of F2695 flexible safety adapted dose in the treatment of patients with Major Depressive Disorders (MDD).
This study enrolled 563 patients who met the DSM-IV criteria for major depression with depression severity at the inclusion time assessed by HAM-D 17 score >22.
Patients were randomised to receive placebo or a flexible safety adapted dose by increasing progressively the administered doses using slow release capsules containing 25 or 50 mg of active drug (281 patients for placebo and 282 patients for F2695).
Placebo as well as F2695 were administered once a day as slow release capsules.
Slow release capsules were constituted of a plurality of minigranules each containing an active minisphere comprising a sucrose core containing F2695 as well as PVP as a binding agent; each minigranule being coated with a film of ethyl cellulose as described in EP 939 626. Placebo was constituted of the same slow release capsules of minigranules containing minispheres constituted only of a sucrose core.
The doses were administered in a dose escalation regimen during 10 days for initial titration. […]
Safety of F2695 was assessed by analysing: • frequency and intensity of adverse events as classified in the ICH guidelines (any adverse change from the subject's baseline condition, i.e. any subjective signs and symptoms, or change in a concomitant disease present at the selection visit, either considered or not related to the treatment) • suicidal risk evaluated by the MINI version 0.5 (modified Mini International Neuropsychiatric Interview) Efficiency of F2695 was assessed by: • MADRS Total score: change from baseline MMRM analysis (Full analysis data set) • MADRS Total score: change from baseline MMRM analysis (Per Protocol data set) • Responders and remitted patients compared to placebo group at Day 70 (end of the treatment period) Results from Safety

[2] = compared with other psychotropic products such as clomipramine and milnacipran; cited from earlier work
[3] = system: patients suffering from psychiatric disorders (among them MDD); conditions: several trials, patients with psychiatric disorders (among them MDD); cited from earlier work

T1 sequence (Q63380 1-617): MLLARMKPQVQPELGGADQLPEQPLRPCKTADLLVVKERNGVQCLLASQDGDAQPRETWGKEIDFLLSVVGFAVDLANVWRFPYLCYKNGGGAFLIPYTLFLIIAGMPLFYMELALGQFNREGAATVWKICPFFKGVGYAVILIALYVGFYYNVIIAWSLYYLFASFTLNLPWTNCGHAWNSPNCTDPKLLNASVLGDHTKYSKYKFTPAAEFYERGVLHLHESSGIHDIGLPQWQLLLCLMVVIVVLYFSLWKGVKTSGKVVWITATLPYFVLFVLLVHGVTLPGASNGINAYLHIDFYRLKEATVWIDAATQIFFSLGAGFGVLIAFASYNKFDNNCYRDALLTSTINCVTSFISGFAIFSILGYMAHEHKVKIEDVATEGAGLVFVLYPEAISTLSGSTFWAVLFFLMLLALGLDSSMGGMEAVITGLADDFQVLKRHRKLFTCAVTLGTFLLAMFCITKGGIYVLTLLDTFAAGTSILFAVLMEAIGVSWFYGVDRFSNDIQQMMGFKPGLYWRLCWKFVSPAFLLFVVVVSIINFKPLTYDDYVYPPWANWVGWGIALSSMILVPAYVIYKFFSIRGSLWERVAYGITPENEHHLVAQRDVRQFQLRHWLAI

CCN(CC)C(=O)[C@@]1(c2ccccc2)C[C@H]1CN.Cl [F2695, Z-(1S,2R)-2-(aminomethyl)-N,N-diethyl-1-phenyl cyclopropane carboxamide hydrochloride]
efficiency in norepinephrine uptake relative to the racemate (norepinephrine uptake): two
patients presenting significant Suicidal Risk (%) ([1]; During the 6-weeks treatment and follow-up, versus 2.1% upon placebo): 0.4%
patients presenting significant Suicidal Risk ([1]; During the 6-weeks treatment and follow-up, versus 6 patients upon placebo): 1 patient
Suicidal Risk in patients suffering from depression ([1]; conclusion from the odds ratio obtained in a small population): significantly reduced
odds ratio (OR) of significant Suicidal Risk, F2695 versus placebo ([1]; logits method, confidence interval [0.0196, 1.3686]): 0.1637
Insufficient response (withdrawn patients) ([1]; n = 282, number of patients): 16
Serious Adverse Event/Non Serious Adverse Event (withdrawn patients) ([1]; n = 282, number of patients): 26
Therapeutic Failure (withdrawn patients) ([1]; n = 282, number of patients): 22
Worsening of MDD (withdrawn patients) ([1]; n = 282, number of patients): 11
Significant Suicidal Risk (withdrawn patients) ([1]; n = 282, number of patients, suicidal risk evaluated by the MINI): 1
Insufficient response (withdrawn patients, %) ([1]; n = 282, percent of group): 5.7%
Serious Adverse Event/Non Serious Adverse Event (withdrawn patients, %) ([1]; n = 282, percent of group): 9.2%
Therapeutic Failure (withdrawn patients, %) ([1]; n = 282, percent of group): 7.8%
Worsening of MDD (withdrawn patients, %) ([1]; n = 282, percent of group): 3.9%
Significant Suicidal Risk (withdrawn patients, %) ([1]; n = 282, percent of group, suicidal risk evaluated by the MINI): 0.4%
safety coefficient [2]: significantly better
toxico-genomic profile [2]: superior

CN(C)CCC[C@@]1(c2ccc(F)cc2)OCc2cc(C#N)ccc21 [escitalopram]
odds ratio (OR) versus placebo, suicidal behaviour and ideation [3]: 1.57

From patent US20110039926A1 (priority 2008, published 2011)
